The values that follow come from patent EP2945947B1, “INHIBITING THE TRANSIENT RECEPTOR POTENTIAL A1 ION CHANNEL” (Merck Sharp & Dohme Corp., priority 2013, dated 2014).

Values after ≈ are worked out from the molar mass of the structure shown. Counter-ions that a name gives are not always drawn. Like-named read-outs stand apart in the source and are kept apart here.

Data set [1] concerns Female Sprague Dawley rats. Description: Rodent acute tolerability test with liver function tests (Example 5). The class given is in vivo, rat. The arrangement: key to Alterations in LFT: (↔) indicates blood levels of markers for potential liver damage within normal range; (↑) indicates blood levels of markers for potential liver damage elevated above normal range. To be noted: for Alterations in LFT / LFT: % upper normal range ALT serum levels / LFT: % upper normal range AST serum levels: single IV bolus dose 100 mg/kg, about 24 hours post dose. The protocol:
Compounds of Formula (Ia) were assessed for acute tolerability in a rodent model at dose levels ranging from 100 - 200 mg/kg based upon the minimum efficacious dose of each compound. Female Sprague Dawley rats were administered up to a 10 mL/kg dose volume of each compound in 0.9% saline at appropriate concentrations as an intravenous bolus via the lateral tail vein. The animals were observed immediately post dose and for up to twenty four hours post dose and clinical observations were recorded. Additionally, approximately twenty four hours post dose animals were euthanized and blood taken for serum chemistry analysis with a focus on liver function tests (LFTs). The maximum tolerated single dose and LFT results are summarized in Table 3, where (↔) indicates blood levels of markers for potential liver damage within normal range and (↑) indicates blood levels of markers for potential liver damage elevated above normal range. Referring to the data in Table 3, LFT blood levels of markers for potential liver damage remained within normal range for the compounds of Formula (Ia), while LFTs were elevated for Comparator Compounds including 5-10 fold elevation above normal for ALT and AST blood levels observed upon administration of Comparative Compound 1. […]

Data set [2] can be described thus: Single-dose toxicity studies in rats (Example 7). The class given is in vivo. The settings on record: rat, in vivo; single IP administration 100 mg/Kg, rats; read-out: plasma Cmax. The protocol: (§1) In one single dose PK study conducted in fed and fasted rats, oral administration of Comparative Compound 2 in 30% HPCD produced adverse clinical signs in some of the fasted rats only.
(§2) Intravenous administration of Comparative Compound 2 (a nanosuspension formulation in 0.5% polysorbate 80 and 0.1% Poloxamer 188 and 0.8%NaCl) at dose levels of 3, 10, and 30 mg/kg as a single slow bolus (∼2 min) to male SD rat was well-tolerated.
(§3) Intravenous administration of Compound 1-B as a single, 30-minute infusion to SD female rats was well-tolerated at dose levels up to 300 mg/kg. No adverse clinical signs were observed concerning Compound 1-B.
(§4) Intravenous administration of Compound 5-T as a single, 30-minute infusion to SD female rats was well-tolerated at dose levels up to 300 mg/kg. No adverse clinical signs were observed concerning Compound 5-T.
(§5) A single oral dose administration of Compound 5-T in a Spray Dried Dispersion (SDD) formulation (a suspension of SDD powder) at nominal doses of 3, 30, 100, and 300 mg/kg to fed female Sprague Dawley rats were well-tolerated. No adverse clinical signs were observed concerning Compound 5-T.

The test system of data set [3] is rats. Description: Single-dose toxicity studies in rats (Example 7). It counts as in vivo. The protocol:
as §1, §2, §3, §4, §5

A short description of data set [4]: Aqueous solubility in buffered solutions, HPLC (Example 2). To be noted: kinetic from dmso stock, ambient temperature. It counts as physicochemical.
The test system of data set [5] is rat. Description: Rodent cold plate pain model, Complete Freund's Adjuvant (Example 4). It counts as in vivo. The settings on record: cold plate 1 °C, Figures 1 and 2. The protocol: CFA-induced pain test method reported in del Camino et al., J. Neurosci., 30 (45):15165-15174. Briefly, the right hind paw is sensitized to cold temperature (allodynic) by administering 0.1 mL of Complete Freund's Adjuvant (CFA) to that paw. Two to four days later, the time it takes for the animal to lift its CFA-injected paw from the cold surface is recorded compared to its un-injected normal left hind paw. […] To avoid tissue damage, the maximum cut-off time is five minutes. Animals that are allodynic (average PWL to the first three pain behaviors <150 seconds for the CFA-injected hind paw: ∼ ≥50% difference between the normal and CFA-injected paw) are included in the study and subsequently randomized across treatment groups. The following day, the animals in some groups are dosed with a test compound under blinded conditions. Following the one to two hour pre-treatment time, the post-dose PWL readings are taken again. The efficacy of the drug treatment is assessed by comparing the PWL in the drug treatment animals to those that receive the vehicle.

Data set [6] has as its target human TRPA1 (Homo sapiens, UniProt O75762). Kind of data set: Inhibition of the TRPA1 ion channel, whole cell patch configuration (Example 1). It counts as cell-based. To be noted: current activation 10 µM AITC, read-out: Human TRPA1 IC50 Inward Current. The protocol:
Compounds of Formula (Ia) inhibit the TRPA1 channel, as measured using the method of Example 1. […] Data for TRPA1 inhibition and for TRPA1 selectivity was obtained by this method for the indicated compounds of Formula (Ia), with the relevant data included in Tables 1a - f below. All currents were recorded in whole-cell configuration using EPC-9 and EPC-10 amplifiers and Patchmaster software (HEKA). […] The standard pipette solution consisted of 140mM CsAsp, 10 mM EGTA, 10 mM HEPES, 2.27 mM MgCl2, 1.91 mM CaCl2, 4 mM MgATP, and 0.1-0.3 mM Na2GTP, with pH adjusted to 7.2 with CsOH. In addition, a solution containing 145 mM CsCl, 10 mM HEPES, 10 mM EGTA and 1 mM MgCl2 (pH 7.2 adjusted with CsOH) can be used. The standard bath solution contained 150 mM NaCl, 10 mM HEPES, 10 mM glucose, 4.5 mM KCl, 1 mM EGTA, 3 mM MgCl2, with pH adjusted to 7.4 with NaOH. In some instances, 2 mM CaCl2 was added in place of EGTA and the concentration of MgCl2 was reduced to 1 mM.
Data were collected either by continuous recordings at -60 mV or by applying voltage ramps from a holding potential of 0 mV every 4 s. Continuous recordings were collected at 400 Hz and digitally filtered off-line at 10 Hz for presentation. Voltage ramps were applied from - 100 mV to 100 mV over the course of 400 ms, and data were collected at 10 kHz and filtered at 2.9 kHz. Inward and outward currents were analyzed from the ramps at -80 and 80 mV, respectively. Liquid junction potential correction was not used.
Solutions were switched using a gravity-fed continuous focal perfusion system. To achieve rapid temperature changes, two temperature control, and perfusion systems were employed simultaneously. For temperatures ≥ 22°C, a Warner Instruments bipolar temperature controller (TC-344B) and inline heater (SHM-8) were used. […] Temperatures were confirmed using a thermistor (Warner Instruments, TA-29), with temperatures at the recorded cell estimated to be within +/- 2°C of those reported.
The antagonist effects of compounds of Formula (Ia) against human TRPA1 ("hTRPA1") and for some compounds rat TRPA1 ("rTRPA1") in a whole cell patch configuration were evaluated using the in vitro assay described above. The current activation tested was 10 µM AITC, and the tested concentrations ranged from 5 µM and 500 nM. Table 1a (Comparative Compounds)

Data set [7] deals with rats. Kind of data set: Rodent formalin pain model (Example 3). To be noted: rat; for Minimal Efficacious Dose of Compound in Formalin Model: IV, statistically significant difference vs vehicle at 0 - 2 min (p≤0.05); for Duration of Pain Behavior: first two minutes after formalin, vehicle 88.6. It counts as in vivo. The protocol:
Compounds of Formula (Ia) are active in rodent models of pain induced by direct activation of the TRPA1 channel with intraplantar injection of the TRPA1 agonist formalin. Compounds of Formula (Ia) were tested in the formalin-induced pain test reported by Abbott et. al. Pain. 1995 Jan;60(1):91-102. Dubuisson et al. describe a method for assessing pain and analgesia in rats. Briefly, dilute formalin (50 µL of 3 % formalin) is injected into the plantar surface of the hind paw. […] The individual responsible for counting the pain behaviors in a particular study is blinded to the treatment groups.
Table 2 is a data table showing the results from testing compounds of Formula (Ia) in the rodent formalin-induced pain model described in […]. Rats were treated with the compounds of Formula (Ia) at various doses (0.1, 0.3, 1, 1.2, 3, 4, 10, or 30 mg/Kg IV) or with a control composition containing the vehicle (i.e., without a compound of Formula (Ia)). Pain behaviors (flinch, lift, lick, bite) were monitored following intraplantar formalin injection. Referring to Table 2, the minimum effective dose was derived from dose resulting in statistically significant difference in behavior at 0 - 2 min time period as compared with vehicle (p≤0.05).

The mark [8] stands for this setting: sodium bicarbonate buffer in water for injection/5% dextrose, pH 9.0, 50 mM sodium bicarbonate, read-out: pH 9.0 aqueous solubility.
[9] abbreviates: sodium phosphate buffer in water for injection/5% dextrose, pH 7.4, 75 mM sodium phosphate, read-out: pH 7.4 aqueous solubility.

human TRPA1, sequence (O75762 whole entry): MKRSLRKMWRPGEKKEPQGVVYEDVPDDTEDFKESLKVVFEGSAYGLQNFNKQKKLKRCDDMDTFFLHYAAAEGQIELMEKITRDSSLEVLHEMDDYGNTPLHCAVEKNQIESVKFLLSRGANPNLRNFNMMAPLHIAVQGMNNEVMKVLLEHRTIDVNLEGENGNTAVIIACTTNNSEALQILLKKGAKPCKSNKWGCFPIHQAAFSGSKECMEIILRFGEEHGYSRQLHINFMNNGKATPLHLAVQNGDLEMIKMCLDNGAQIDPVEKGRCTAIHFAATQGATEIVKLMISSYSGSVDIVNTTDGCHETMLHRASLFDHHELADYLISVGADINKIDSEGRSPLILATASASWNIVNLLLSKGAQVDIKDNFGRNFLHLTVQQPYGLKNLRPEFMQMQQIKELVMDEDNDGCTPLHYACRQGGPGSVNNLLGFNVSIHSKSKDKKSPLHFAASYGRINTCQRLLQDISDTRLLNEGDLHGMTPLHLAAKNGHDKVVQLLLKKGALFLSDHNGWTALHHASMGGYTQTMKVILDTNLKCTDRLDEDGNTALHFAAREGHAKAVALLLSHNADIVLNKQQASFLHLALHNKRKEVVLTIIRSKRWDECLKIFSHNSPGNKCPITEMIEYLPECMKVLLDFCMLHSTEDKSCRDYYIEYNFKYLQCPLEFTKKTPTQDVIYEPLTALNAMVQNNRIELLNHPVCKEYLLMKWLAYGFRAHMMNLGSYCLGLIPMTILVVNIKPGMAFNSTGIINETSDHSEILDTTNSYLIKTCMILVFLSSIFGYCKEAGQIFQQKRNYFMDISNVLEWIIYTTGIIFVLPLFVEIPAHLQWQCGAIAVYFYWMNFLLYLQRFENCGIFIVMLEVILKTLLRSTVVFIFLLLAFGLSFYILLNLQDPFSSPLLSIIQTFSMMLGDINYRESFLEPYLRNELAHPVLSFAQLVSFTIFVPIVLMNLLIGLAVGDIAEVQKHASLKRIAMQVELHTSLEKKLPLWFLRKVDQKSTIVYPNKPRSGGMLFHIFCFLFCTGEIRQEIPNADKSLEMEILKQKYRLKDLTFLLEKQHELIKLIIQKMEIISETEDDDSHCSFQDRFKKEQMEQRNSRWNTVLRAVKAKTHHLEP

On to `C[C@H]1CCCN1c1ncc(-c2cccc(NC(=O)Cn3cnc4c3c(=O)n(C)c(=O)n4C)n2)cn1` [Comparator 2, reference compound], for which the “serum biomarkers of hepatotoxicity” value in data set [1] (animal studies of Example 5) was “did not elevate the serum biomarkers of hepatotoxicity”. Besides, the Cmax (as a rule, the peak of the concentration-time curve) in data set [2] was approximately 110 µg/mL. For the same compound, the tolerability result in data set [3] (IV single slow bolus, nanosuspension formulation, 3, 10, and 30 mg/kg, male SD rat) is “well-tolerated”. The clinical observations entry in data set [3] (IV single slow bolus, nanosuspension formulation, all three dose levels (3, 10, 30 mg/kg), ~1hr postdose, male SD rat) was “Mild flushing/mild swelling of the ears”. Moreover, the clinical signs result in data set [3] (single IP administration 100 mg/Kg, rats, approximately 30 minutes to 4 hours) is recorded as “mild to moderate lethargy”. The adverse clinical signs entry in data set [3] (single oral dose in 30% HPCD, 50 mg/kg and 100 mg/kg, fasted female rats only (two of three and one of three)) was “labored breathing and red urine”. Besides, the solubility kinetic at 24 h in data set [4] (buffered solution (sodium acetate buffer), pH 4.0, 50mM sodium acetate in 5% dextrose, read-out: pH 4.0 aqueous solubility) was determined as 0.009 mg/mL (≈ 18.9 µM); in data set [4] (buffered solution (sodium bicarbonate buffer), pH 9.0, 50 mM sodium bicarbonate, read-out: pH 9.0 aqueous solubility), 0.01 mg/mL (≈ 21 µM); in data set [4] (buffered solution (sodium phosphate buffer), pH 7.4, 75 mM sodium phosphate, read-out: pH 7.4 aqueous solubility), 0.007 mg/mL (≈ 14.7 µM). Moreover, the “Paw Withdrawal Latency, CFA cold allodynia” value in data set [5] is on record as “significantly less potency”. Further, in data set [6], the IC50 (in general, the midpoint of a concentration-inhibition curve) is 0.076 to 0.1 µM.

On to `C[C@@H](C(=O)N(COP(=O)(O)O)c1cncc(-c2cnc(N3CCC[C@H]3C(F)(F)F)nc2)n1)n1cnc2c1c(=O)n(C)c(=O)n2C` [Compound 5-S, ((S)-2-(1,3-dimethyl-2,6-dioxo-1,2,3,6-tetrahydro-7H-purin-7-yl)-N-(6-(2-((S)-2-(trifluoromethyl)pyrrolidin-1-yl)pyrimidin-5-yl)pyrazin-2-yl)propanamido)methyl dihydrogen phosphate], for which, in data set [1], the “Alterations in LFT” value is given as “↔”. The “LFT: % upper normal range ALT serum levels” value in data set [1] is recorded as less than 100%/<100%. In addition, the “LFT: % upper normal range AST serum levels” value in data set [1] is listed as less than 100%/<100%. Further, the “Minimal Efficacious Dose of Compound in Formalin Model” value (“Minimal Efficacious Dose of Compound” for short) in data set [7] was found to be 3 mg/kg. The “Duration of Pain Behavior” value in data set [7] (dose 0.3 mg/kg IV) was determined as 69.8 s; in data set [7] (dose 1 mg/kg IV), 52.3 s; in data set [7] (dose 3 mg/kg IV), 8.4 s; in data set [7] (dose 10 mg/kg IV), 0 s. The solubility kinetic at 24 h in data set [4] (setting [8]) and in data set [4] (setting [9]) was more than 1 mg/mL throughout. In data set [6], the IC50 was more than 0.1 µM.

On to `CC(C(=O)N(COP(=O)(O)O)c1cccc(-c2cnc(N3CCCC3C(F)(F)F)nc2)n1)n1cnc2c1c(=O)n(C)c(=O)n2C` (stereo not shown) [Compound 1-A, phosphate, sodium salt], for which the “Alterations in LFT” value in data set [1] was “↔”. Further, the “LFT: % upper normal range ALT serum levels” value in data set [1] was less than 100%/<100%. For the same compound, the “LFT: % upper normal range AST serum levels” value in data set [1] is listed as less than 100%/<100%. In addition, the “Minimal Efficacious Dose of Compound” value in data set [7] worked out at 1.2 mg/kg. The “Duration of Pain Behavior” value is 77.7 s in data set [7] (dose 0.3 mg/kg IV), 43.3 s in data set [7] (dose 1.2 mg/kg IV) and 19.8 s in data set [7] (dose 4 mg/kg IV). Moreover, the solubility kinetic at 24 h in data set [4] (setting [8]) and in data set [4] (setting [9]) was more than 1 mg/mL each time. Besides, in data set [5], the “Paw Withdrawal Latency, CFA cold allodynia” value is “reversal of CFA Cold Allodynia”. Also, the IC50 in data set [6] is more than 0.1 µM.

Take `C[C@@H](C(=O)N(COP(=O)(O)O)c1cncc(-c2cnc(N3CCCC3(C)C)nc2)n1)n1cnc2c1c(=O)n(C)c(=O)n2C` [Compound 2-E, (S)-(2-(1,3-dimethyl-2,6-dioxo-1,2,3,6-tetrahydro-7H-purin-7-yl)-N-(6-(2-(2,2-dimethylpyrrolidin-1-yl)pyrimidin-5-yl)pyrazin-2-yl)propanamido)methyl dihydrogen phosphate]: the “Alterations in LFT” value in data set [1] is on record as “↔”. Besides, the “LFT: % upper normal range ALT serum levels” value in data set [1] was less than 100%/<100%. Besides, the “LFT: % upper normal range AST serum levels” value in data set [1] is less than 100%/<100%. In addition, the “Minimal Efficacious Dose of Compound” value in data set [7] is recorded as 3 mg/kg. For the same compound, the “Duration of Pain Behavior” value in data set [7] (dose 0.3 mg/kg IV) was determined as 80.4 s; in data set [7] (dose 1 mg/kg IV), 77 s; in data set [7] (dose 3 mg/kg IV), 15.1 s. The solubility kinetic at 24 h in data set [4] (setting [8]) and in data set [4] (setting [9]) was more than 1 mg/mL each time. Further, the IC50 in data set [6] is more than 0.1 µM.
